Results reported in US20150024934A1, “CONTROLLING CHARCOAL ROT WITH FLUTRIAFOL” (CHEMINOVA A/S, priority 2013, published 2015).

Assays:
Macrophomina phaseolina = experiment: Mycelial colony growth on flutriafol-amended PDA; type: cell-based; settings: 1x; for Dia (mm) 1 day: untreated 28.2; for Dia (mm) 3 days / Dia (mm) 5 days / Dia (mm) 7 days: untreated 40
Method: Inhibition of Macrophomina phaseolina (charcoal rot) was tested in the following example: The flutriafol composition used in the example was TOPGUARD (125 g/L flutriafol SC), a commercially available product.
Each pathogen was grown out on fresh potato dextrose agar (commercial PDA), assessed and used to seed 2× autoclaved rice for inoculums development. At 7-10 days, two infested rice grains with the pathogen was placed at equal distances on flutriafol-amended PDA and incubated at 27-29° C. Mycelial colony diameter from each rice grain was measured at 1, 3, 5 and 7 days from grain placement. The included tables and data sets illustrate the differences in mycelia growth in response to various concentrations of the fungicide.

charcoal rot = experiment: Strawberry field trial for control of charcoal rot (infected plants, yield); type: in vivo; settings: applied either surface incorporated or via buried drip

SMILES: OC(Cn1cncn1)(c1ccc(F)cc1)c1ccccc1F (racemic) [flutriafol, (RS)-2,4′-difluoro-α-(1H-1,2,4-triazol-1-ylmethyl)benzhydryl alcohol]
- Dia (mm) 1 day (Macrophomina phaseolina; 0.01 ppm): 25.5 mm
- Dia (mm) 3 days (Macrophomina phaseolina; 0.01 ppm): 40 mm
- Dia (mm) 5 days (Macrophomina phaseolina; 0.01 ppm): 40 mm
- Dia (mm) 7 days (Macrophomina phaseolina; 0.01 ppm): 40 mm
- Dia (mm) 1 day (Macrophomina phaseolina; 0.1 ppm): 22.3 mm
- Dia (mm) 3 days (Macrophomina phaseolina; 0.1 ppm): 40 mm
- Dia (mm) 5 days (Macrophomina phaseolina; 0.1 ppm): 40 mm
- Dia (mm) 7 days (Macrophomina phaseolina; 0.1 ppm): 40 mm
- Dia (mm) 1 day (Macrophomina phaseolina; 1 ppm): 13.9 mm
- Dia (mm) 3 days (Macrophomina phaseolina; 1 ppm): 38.6 mm
- Dia (mm) 5 days (Macrophomina phaseolina; 1 ppm): 40 mm
- Dia (mm) 7 days (Macrophomina phaseolina; 1 ppm): 40 mm
- Dia (mm) 1 day (Macrophomina phaseolina; 10 ppm): 0 mm
- Dia (mm) 3 days (Macrophomina phaseolina; 10 ppm): 3.5 mm
- Dia (mm) 5 days (Macrophomina phaseolina; 10 ppm): 3.5 mm
- Dia (mm) 7 days (Macrophomina phaseolina; 10 ppm): 5.1 mm
- Dia (mm) 1 day (Macrophomina phaseolina; 100 ppm): 0 mm
- Dia (mm) 3 days (Macrophomina phaseolina; 100 ppm): 0 mm
- Dia (mm) 5 days (Macrophomina phaseolina; 100 ppm): 0 mm
- Dia (mm) 7 days (Macrophomina phaseolina; 100 ppm): 0 mm
- Dia (mm) 1 day (Macrophomina phaseolina; 250 ppm, mycelial colony diameter, TOPGUARD 125 g/L SC in PDA): 0 mm
- Dia (mm) 3 days (Macrophomina phaseolina; 250 ppm): 0 mm
- Dia (mm) 5 days (Macrophomina phaseolina; 250 ppm): 0 mm
- Dia (mm) 7 days (Macrophomina phaseolina; 250 ppm): 0 mm
- effect on charcoal rot (charcoal rot): significantly reduced charcoal rot
